# Patent US10590128B2, “6,7,8,9-tetrahydro-5H-pyrido[2,3-d]azepine dopamine D3 ligands” (Pfizer Inc., priority 2016, dated 2020)
# Experiments:
# [1] = molecular target: human dopamine D3 receptor (hD3R) (Homo sapiens, UniProt P35462); experiment: Human D3 receptor binding assay ([^3H]-7-OH-DPAT); conditions: CHO cells expressing hD3R, geometric mean of 2-5 determinations unless marked b (single determination), read-out: hD3 in CHO cells Ki
# Description: (§1) Human D2 Receptor and Human D3 Receptor Binding Assays:
# (§2) These determined ligand and tissue concentrations were utilized in time course studies to determine linearity and equilibrium conditions for binding. […] The hD2R assay buffer contains 50 mM Tris (pH 7.4 @ 37° C.), 100 mM NaCl and 1 mM MgCl2. The hD3R assay buffer consists of 50 mM Tris (pH 7.4 at 37° C.), 120 mM NaCl, 5 mM MgCl2, 5 mM KCl and 2 mM CaCl2. Competitive binding experiments were initiated by the addition of 200 μL of the respective cell homogenate to 96-well plates containing […] test drugs (10 concentrations using ½ log dilutions) and 50 μL of ^3H-radioligand for a final volume of 250 μL. Non-specific binding was determined by radioligand binding in the presence of a saturating concentration of Haldol (10 μM). After the 20 minute incubation at 37° C., assay samples were rapidly filtered through Unifilter-96 GF/B PEI-coated filter plates and rinsed with ice-cold 50 mM Tris buffer (pH 7.4 at 4° C.). […] The IC50 value (concentration at which 50% inhibition of specific binding occurs) was calculated by linear regression of the concentration-response data in ActivityBase. Ki values were then calculated according to the Cheng-Prusoff equation:
# (§3) [formula] where [L]=concentration of free radioligand and Kd=dissociation constant of radioligand for D3 receptor or D2 receptor.
# [2] = molecular target: human dopamine D2 receptor (hD2R) (Homo sapiens, UniProt P14416); experiment: Human D2 receptor binding assay ([^3H]-Spiperone); conditions: CHO cells expressing hD2R, geometric mean of 2-5 determinations unless marked b (single determination)
# Description: as §1, §2, §3
# Sequence of human dopamine D2 receptor (hD2R) (P14416 whole entry): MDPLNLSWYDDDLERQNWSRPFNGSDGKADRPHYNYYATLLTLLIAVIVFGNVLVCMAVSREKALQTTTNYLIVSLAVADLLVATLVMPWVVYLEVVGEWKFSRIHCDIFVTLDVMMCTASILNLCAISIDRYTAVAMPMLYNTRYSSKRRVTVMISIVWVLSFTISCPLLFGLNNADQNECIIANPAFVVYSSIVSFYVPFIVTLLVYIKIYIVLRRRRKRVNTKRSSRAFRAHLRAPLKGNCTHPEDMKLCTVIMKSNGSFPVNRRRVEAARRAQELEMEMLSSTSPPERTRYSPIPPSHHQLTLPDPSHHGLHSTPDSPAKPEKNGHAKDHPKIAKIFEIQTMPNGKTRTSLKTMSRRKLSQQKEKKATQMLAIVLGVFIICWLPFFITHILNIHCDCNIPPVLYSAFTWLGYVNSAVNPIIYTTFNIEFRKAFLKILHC
# Sequence of human dopamine D3 receptor (hD3R) (P35462 whole entry): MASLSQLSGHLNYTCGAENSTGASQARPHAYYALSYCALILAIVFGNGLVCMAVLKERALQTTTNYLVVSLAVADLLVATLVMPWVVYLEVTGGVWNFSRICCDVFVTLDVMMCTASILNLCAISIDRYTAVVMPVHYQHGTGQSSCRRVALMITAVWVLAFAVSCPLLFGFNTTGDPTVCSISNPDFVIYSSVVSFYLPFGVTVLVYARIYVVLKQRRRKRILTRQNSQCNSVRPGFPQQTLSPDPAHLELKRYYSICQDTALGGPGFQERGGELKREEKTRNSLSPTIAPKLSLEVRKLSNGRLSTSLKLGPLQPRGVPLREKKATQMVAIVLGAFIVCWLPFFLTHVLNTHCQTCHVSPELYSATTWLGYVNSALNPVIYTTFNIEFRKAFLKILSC
Ki [1],Ki [2],Compound
0.0322 µM,0.457 µM,"COc1nc2c(cc1NS(=O)(=O)c1cnc(C3CCCCC3)nc1)CCN(C)CC2 [Example 127, 2-cyclohexyl-N-(2-methoxy-7-methyl-6,7,8,9-tetrahydro-5H-pyrido[2,3-d]azepin-3-yl)pyrimidine-5-sulfonamide]"
0.000859 µM,0.076 µM,"CCN1CCc2cc(NS(=O)(=O)c3ccc(OC4CCCC4)nc3)c(OC)nc2CC1 [Example 2, 6-(Cyclopentyloxy)-N-(7-ethyl-2-methoxy-6,7,8,9-tetrahydro-5H-pyrido[2,3-d]azepin-3-yl)pyridine-3-sulfonamide]"
0.00626 µM,0.677 µM,"CCN1CCc2cc(NS(=O)(=O)c3ccc(C4(F)CCCC4)nc3)c(OC)nc2CC1 [Example 101, N-(7-ethyl-2-methoxy-6,7,8,9-tetrahydro-5H-pyrido[2,3-d]azepin-3-yl)-6-(1-fluorocyclopentyl)pyridine-3-sulfonamide]"
0.00589 µM,0.983 µM,"COc1nc2c(cc1NS(=O)(=O)c1ccc(OC3CCOC3)nc1)CCN(C)CC2 (stereo not shown) [Example 97, N-(2-methoxy-7-methyl-6,7,8,9-tetrahydro-5H-pyrido[2,3-d]azepin-3-yl)-6-(tetrahydrofuran-3-yloxy)pyridine-3-sulfonamide]"
0.00112 µM,0.105 µM,"CCN1CCc2cc(NS(=O)(=O)c3ccc(C(C)C)cc3)c(OC)nc2CC1 [Example 51, N-(7-ethyl-2-methoxy-6,7,8,9-tetrahydro-5H-pyrido[2,3-d]azepin-3-yl)-4-(propan-2-yl)benzenesulfonamide]"
0.0044 µM,0.76 µM,"CCN1CCc2cc(NS(=O)(=O)c3ccc4c(c3)CCCO4)c(OC)nc2CC1 [Example 58, N-(7-ethyl-2-methoxy-6,7,8,9-tetrahydro-5H-pyrido[2,3-d]azepin-3-yl)-3,4-dihydro-2H-chromene-6-sulfonamide]"
0.00746 µM,1.22 µM,"COc1nc2c(cc1NS(=O)(=O)c1ccc([C@]3(F)C[C@H](C)C3)nc1)CCN(C)CC2 [Example 136, 6-(trans-1-fluoro-3-methylcyclobutyl)-N-(2-methoxy-7-methyl-6,7,8,9-tetrahydro-5H-pyrido[2,3-d]azepin-3-yl)pyridine-3-sulfonamide]"
0.00065 µM,0.0263 µM,"COc1nc2c(cc1NS(=O)(=O)c1ccc3c(c1)CC(C)(C)O3)CCN(C)CC2 [Example 34, N-(2-methoxy-7-methyl-6,7,8,9-tetrahydro-5H-pyrido[2,3-d]azepin-3-yl)-2,2-dimethyl-2,3-dihydro-1-benzofuran-5-sulfonamide]"
0.00367 µM,0.403 µM,"COc1nc2c(cc1NS(=O)(=O)c1ccc(C3(C)CCOCC3)cc1)CCN(C)CC2 [Example 79, N-(2-methoxy-7-methyl-6,7,8,9-tetrahydro-5H-pyrido[2,3-d]azepin-3-yl)-4-(4-methyltetrahydro-2H-pyran-4-yl)benzenesulfonamide]"
0.00878 µM,1.46 µM,"CCN1CCc2cc(NS(=O)(=O)c3ccc4c(c3)CCCO4)c(OC(C)C)nc2CC1 [Example 66, N-[7-ethyl-2-(propan-2-yloxy)-6,7,8,9-tetrahydro-5H-pyrido[2,3-d]azepin-3-yl]-3,4-dihydro-2H-chromene-6-sulfonamide]"
0.00032 µM,0.0114 µM,"CCN1CCc2cc(NS(=O)(=O)c3ccc(OC4CCCC4)cc3)c(OC)nc2CC1 [Example 63, 4-(cyclopentyloxy)-N-(7-ethyl-2-methoxy-6,7,8,9-tetrahydro-5H-pyrido[2,3-d]azepin-3-yl)benzenesulfonamide]"
0.00233 µM,0.124 µM,"CCOc1ccc(S(=O)(=O)Nc2cc3c(nc2OC)CCN(C)CC3)cc1 [Example 28, 4-ethoxy-N-(2-methoxy-7-methyl-6,7,8,9-tetrahydro-5H-pyrido[2,3-d]azepin-3-yl)benzenesulfonamide]"
0.00507 µM,0.542 µM,"COc1nc2c(cc1NS(=O)(=O)c1ccc([C@]3(F)C[C@@H](C)C3)nc1)CCN(C)CC2 [Example 25, 6-(cis-1-fluoro-3-methylcyclobutyl)-N-(2-methoxy-7-methyl-6,7,8,9-tetrahydro-5H-pyrido[2,3-d]azepin-3-yl)pyridine-3-sulfonamide]"
0.00225 µM,0.162 µM,"COc1nc2c(cc1NS(=O)(=O)c1ccc(C(C)C)cc1)CCN(CCCF)CC2 [Example 44, N-[7-(3-fluoropropyl)-2-methoxy-6,7,8,9-tetrahydro-5H-pyrido[2,3-d]azepin-3-yl]-4-(propan-2-yl)benzenesulfonamide]"
0.0004 µM,0.0528 µM,"CCCc1ccc(S(=O)(=O)Nc2cc3c(nc2OC)CCN(CC)CC3)cc1 [Example 62, N-(7-ethyl-2-methoxy-6,7,8,9-tetrahydro-5H-pyrido[2,3-d]azepin-3-yl)-4-propylbenzenesulfonamide]"
0.00258 µM,0.202 µM,"CCN1CCc2cc(NS(=O)(=O)c3ccc(C4CCCCO4)cc3)c(OC)nc2CC1 (single isomer, unassigned) [Example 74]"
0.00321 µM,0.26 µM,"COc1nc2c(cc1NS(=O)(=O)c1ccc(O[C@@H]3CCOC3)cc1)CCN(C)CC2 [Example 37, N-(2-methoxy-7-methyl-6,7,8,9-tetrahydro-5H-pyrido[2,3-d]azepin-3-yl)-4-[(3R)-tetrahydrofuran-3-yloxy]benzenesulfonamide]"
0.00203 µM,0.366 µM,"COc1nc2c(cc1NS(=O)(=O)c1ccc(C3(F)CCC(OC)CC3)cc1)CCN(C)CC2 (single isomer, unassigned) [Example 93, 4-(trans-1-fluoro-4-methoxycyclohexyl)-N-(2-methoxy-7-methyl-6,7,8,9-tetrahydro-5H-pyrido[2,3-d]azepin-3-yl)benzenesulfonamide]"
0.00372 µM,0.333 µM,"COc1nc2c(cc1NS(=O)(=O)c1ccc(C)cc1)CCN(C)CC2 [Example 5, N-(2-Methoxy-7-methyl-6,7,8,9-tetrahydro-5H-pyrido[2,3-d]azepin-3-yl)-4-methylbenzenesulfonamide]"
0.00209 µM,0.18 µM,"COc1nc2c(cc1NS(=O)(=O)c1ccc([C@@H]3CCCCO3)cc1)CCN(C)CC2 [Example 8, N-(2-Methoxy-7-methyl-6,7,8,9-tetrahydro-5H-pyrido[2,3-d]azepin-3-yl)-4-[(2S)-tetrahydro-2H-pyran-2-yl]benzenesulfonamide]"
0.0108 µM,0.923 µM,"CCN1CCc2nc(OC)c(NS(=O)(=O)c3ccc(C)cc3)cc2C(C)C1 (stereo not shown) [Example 13, N-(7-ethyl-2-methoxy-5-methyl-6,7,8,9-tetrahydro-5H-pyrido[2,3-d]azepin-3-yl)-4-methylbenzenesulfonamide]"
0.00046 µM,0.0261 µM,"COc1nc2c(cc1NS(=O)(=O)c1ccc([C@@H]3CCCCO3)c(C)c1)CCN(C)CC2 [Example 105, N-(2-methoxy-7-methyl-6,7,8,9-tetrahydro-5H-pyrido[2,3-d]azepin-3-yl)-3-methyl-4-[(2S)-tetrahydro-2H-pyran-2-yl]benzenesulfonamide]"
0.00119 µM,0.311 µM,"COc1nc2c(cc1NS(=O)(=O)c1ccc([C@H]3C[C@@H](OC)C3)cc1)CCN(C)CC2 [Example 81, 4-(cis-3-methoxycyclobutyl)-N-(2-methoxy-7-methyl-6,7,8,9-tetrahydro-5H-pyrido[2,3-d]azepin-3-yl)benzenesulfonamide]"
